Measurements published in PubChem BioAssay (NCI).
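Cultured in 96-well plates, cells were exposed to test compound for 48 hours across five concentrations. At the GI50, growth is halved. TGI: total growth inhibition.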

Columns and labels:
Experiment in all cases: inhibition of tumour cell growth, NCI panel, 48 h
[1] = tested on: MOLT-4 leukemia
[2] = tested on: TK-10 renal
[3] = tested on: SNB-75 CNS
[4] = tested on: SNB-19 CNS
[5] = tested on: ACHN renal
[6] = tested on: A498 renal
[7] = tested on: SF-539 CNS
[8] = tested on: SF-268 CNS
[9] = tested on: SR leukemia
[10] = tested on: HOP-92 NSCLC

| Structure (SMILES) | TGI [1] | TGI [2] | TGI [3] | TGI [4] | TGI [5] | TGI [6] | TGI [7] | TGI [8] | TGI [9] [µM] | TGI [10] | GI50 [1] | GI50 [2] | GI50 [3] | GI50 [10] | GI50 [4] | GI50 [5] | GI50 [6] | GI50 [7] | GI50 [8] |
| --- | --- | --- | --- | --- | --- | --- | --- | --- | --- | --- | --- | --- | --- | --- | --- | --- | --- | --- | --- |
| CCOC(=O)[C@H]1Nc2ccc(OC)cc2C2c3ccccc3CC21 (some centres not stated) | > 100 µM | > 100 µM | > 100 µM | > 100 µM | > 100 µM | > 100 µM | > 100 µM | > 100 µM | > 100 | – | – | – | – | – | – | – | – | – | – |
| COC(=O)c1nc(N)[nH]c(=O)c1CCCCCc1c(C(=O)OC)nc(N)[nH]c1=O | – | > 50 µM | > 50 µM | > 50 µM | > 50 µM | > 50 µM | > 50 µM | > 50 µM | – | > 50 µM | – | – | – | – | – | – | – | – | – |
| C[C-](O)O.O/C(=C\[C-](O)c1ccccc1)c1ccccc1.O/C(=C\[C-](O)c1ccccc1)c1ccccc1.[Nd+3] (configuration not stated) | 28.7 µM | 94.2 µM | 6.35 µM | 50 µM | > 100 µM | 43.1 µM | 25.5 µM | 32.5 µM | – | 35.3 µM | 3.89 µM | 20.9 µM | 1.77 µM | 12.9 µM | 7.83 µM | 12 µM | 11.7 µM | 5.5 µM | 6.44 µM |
| O=[N+]([O-])c1ccc2c(c1)[O][Sn][O]2 | > 150 µg/mL | > 150 µg/mL | > 150 µg/mL | > 150 µg/mL | > 150 µg/mL | > 150 µg/mL | > 150 µg/mL | > 150 µg/mL | – | 88.3 µg/mL | 33 µg/mL | > 150 µg/mL | > 150 µg/mL | 45.3 µg/mL | 55.2 µg/mL | 139 µg/mL | > 150 µg/mL | 50.1 µg/mL | 47.6 µg/mL |
| C1=CC=C2NCCOCCNC3=CC=CC=CC3=NCCOCCN=C2C=C1 | > 100 µM | > 100 µM | > 100 µM | > 100 µM | > 100 µM | > 100 µM | – | > 100 µM | – | – | – | – | – | – | – | – | – | – | – |
| O=C(OC[C@H]1O[C@@H](OC(=O)c2cc(O)c(O)c(O)c2)[C@H](OC(=O)c2cc(O)c(O)c(O)c2)[C@@H](OC(=O)c2cc(O)c(O)c(O)c2)[C@@H]1OC(=O)c1cc(O)c(O)c(O)c1)c1cc(O)c(O)c(O)c1 | 86.5 µM | 66 µM | – | > 100 µM | 30.1 µM | 37.5 µM | 16.3 µM | 33.7 µM | > 100 | 37.4 µM | – | – | – | – | – | – | – | – | – |
| Cc1nn(-c2ccccc2)c(-c2ccccc2[N+](=O)[O-])c1CC#N | > 100 µM | > 100 µM | > 100 µM | > 100 µM | > 100 µM | – | > 100 µM | > 100 µM | – | > 100 µM | – | – | – | – | – | – | – | – | – |
| CCOC(=O)c1cc(/C=C/C(C)=C/C(=O)OC)n(C)c1C | > 100 µM | > 100 µM | – | > 100 µM | > 100 µM | > 100 µM | > 100 µM | > 100 µM | – | > 100 µM | – | – | – | – | – | – | – | – | – |
| CN=C1SC(=Nc2ccc(N(C)C)cc2)N1C | > 100 µM | > 100 µM | 49.1 µM | > 100 µM | – | 91.9 µM | > 100 µM | > 100 µM | > 100 | 53.5 µM | – | – | – | – | – | – | – | – | – |
| CCOc1ccccc1NC(=O)CCc1nc(=S)[nH][nH]1 | > 100 µM | > 100 µM | – | > 100 µM | > 100 µM | – | > 100 µM | > 100 µM | > 100 | > 100 µM | – | – | – | – | – | – | – | – | – |
